Measurements: ChEMBL document CHEMBL1932941, “3-mercapto-1,2,4-triazoles and N-acylated thiosemicarbazides as metallo-β-lactamase inhibitors” (Bioorg Med Chem Lett, 2012)

Key:
[1] = target: Beta-lactamase (Pseudomonas aeruginosa) (UniProt Q79MP6); assay: Inhibition of Pseudomonas aeruginosa beta-lactamase IMP-1 expressed in Escherichia coli BL21(DE3) at 10 uM using CENTA as chromogenic substrate
[2] = target: Beta-lactamase (Pseudomonas aeruginosa) (UniProt Q79MP6); assay: Competitive inhibition of Pseudomonas aeruginosa beta-lactamase IMP-1 assessed as formation of 4-nitrothiophenolate at pH 7 using CENTA as chromogenic substrate
[3] = target: Beta-lactamase (Pseudomonas aeruginosa) (UniProt Q79MP6); assay: Uncompetitive inhibition of Pseudomonas aeruginosa beta-lactamase IMP-1 assessed as formation of 4-nitrothiophenolate at pH 7 using CENTA as chromogenic substrate
[4] = target: Beta-lactamase (Pseudomonas aeruginosa) (UniProt Q79MP6); assay: Inhibition of Pseudomonas aeruginosa beta-lactamase IMP-1 expressed in Escherichia coli BL21(DE3) at 1000 uM using CENTA as chromogenic substrate
[5] = target: Beta-lactamase (Pseudomonas aeruginosa) (UniProt Q79MP6); assay: Inhibition of Pseudomonas aeruginosa beta-lactamase IMP-1 expressed in Escherichia coli BL21(DE3) at 100 uM using CENTA as chromogenic substrate
[6] = Solubility of the compound; assay type: physicochemical

Beta-lactamase (Pseudomonas aeruginosa), sequence (Q79MP6 19-246 limits assumed): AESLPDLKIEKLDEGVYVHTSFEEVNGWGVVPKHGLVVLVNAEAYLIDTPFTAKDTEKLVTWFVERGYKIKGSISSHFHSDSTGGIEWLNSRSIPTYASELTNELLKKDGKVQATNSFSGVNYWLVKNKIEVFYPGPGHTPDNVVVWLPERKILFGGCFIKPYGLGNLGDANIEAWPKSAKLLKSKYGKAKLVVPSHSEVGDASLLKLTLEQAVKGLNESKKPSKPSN

Compound | inhibition [1] [%] | Kiuc [3] [µM] | other results
NC(=S)NNC(=O)c1ccc(C(=O)c2ccc([N+](=O)[O-])cc2)cc1 | 45 | 20 | Kic [2]: 11 µM
Cc1nnc(S)[nH]1 | – | – | inhibition [4]: 33%
Sc1n[nH]c(-c2ccccc2)n1 | – | – | inhibition [4]: 0%
Cc1nnc[nH]1 | – | – | inhibition [4]: 0%
CC(C)(C)C(=O)NNC(N)=S | 0 | – | –
Cc1ccc(C(=O)c2ccc(C(=O)NNC(N)=S)cc2)cc1 | 38 | 20 | Kic [2]: 41 µM
FC(F)(F)c1nnc(S)[nH]1 | – | – | inhibition [4]: 45%
NC(=S)NNC(=O)c1ccccc1C(=O)O | 0 | – | –
O=C(c1ccccc1)c1ccc(-c2nnc(S)[nH]2)cc1 | 10 | 56 | inhibition [5]: 44%; Kic [2]: 75 µM
O=[N+]([O-])c1cccc(-c2nnc(S)[nH]2)c1 | – | – | solubility [6]: Insoluble
CCCCCCc1nnc(S)[nH]1 | – | – | solubility [6]: Insoluble
NC(=S)NNC(=O)c1cccc([N+](=O)[O-])c1 | 30 | – | –
CNC(=S)NNC(=O)C(C)(C)C | 0 | – | –
NC(=S)NNC(=O)CCC(=O)O | 13 | – | –
NC(=S)NNC(=O)CCCC(=O)O | 8 | – | –
O=C(O)CCc1nnc(S)[nH]1 | 10 | – | inhibition [5]: 10%
CSc1nnc(C(C)(C)C)[nH]1 | – | – | inhibition [4]: 10%
O=C(O)c1ccccc1-c1nnc(S)[nH]1 | 0 | – | inhibition [5]: 7%
NC(=S)NNC(=O)c1ccc(C(=O)c2cccc([N+](=O)[O-])c2)cc1 | 45 | 15 | Kic [2]: 16 µM
NC(=S)NNC(=O)c1ccc(C(=O)c2ccccc2)cc1 | 34 | 26 | Kic [2]: 13 µM
NC(=S)NNC(=O)c1ccc(Cc2ccccc2)cc1 | 26 | 37 | Kic [2]: 18 µM
NC(=S)NNC(=O)c1ccc(C(=O)c2ccccc2Cl)cc1 | 51 | 13 | Kic [2]: 14 µM
CCCCCCSc1nnc(C(C)(C)C)[nH]1 | – | – | solubility [6]: Insoluble
CC(C)(C)c1nnc(S)[nH]1 | – | – | inhibition [4]: 32%
CCc1nnc(S)[nH]1 | – | – | inhibition [4]: 32%
NC(S)=NNC(=O)c1ccccc1 | 22 | 30 | Kic [2]: 19 µM
O=C(O)CCCc1nnc(S)[nH]1 | 0 | – | inhibition [5]: 5%
Cn1c(S)nnc1C(F)(F)F | – | – | inhibition [4]: 51%
C[C@H](CS)C(=O)N1CCC[C@H]1C(=O)O | – | > 2000 | –
